Assay results taken from the supplement of paper PMC10307832.

Key:
Assay in all cases: relative viability (nuclei count vs DMSO), 5 days (fraction); higher = more cells survive
PC-3 [JPC-3] = tested on: PC-3 [JPC-3]
How it was run: (§1)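 Lung cancer cell lines, seeded in 1536-well plates, were treated the following day by pin tool with a single drug or with five library-drug doses (not always all listed) in √10 steps on top of a fixed anchor-drug dose. Cells were fixed and nuclei stained in one step after 5 days, and nuclei were counted. Relative viability is the nuclei count for treated wells divided by that for vehicle wells, reported as medians of duplicate plates.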

NCI-H1975 = tested on: NCI-H1975
How it was run: as §1

LC-2-ad = tested on: LC-2-ad
How it was run: as §1

NCI-H1734 = tested on: NCI-H1734
How it was run: as §1

HCC-78 = tested on: HCC-78
How it was run: as §1

SK-LU-1 = tested on: SK-LU-1
How it was run: as §1

NCI-H2126 = tested on: NCI-H2126
How it was run: as §1

LOU-NH91 = tested on: LOU-NH91
How it was run: as §1

NCI-H1792 = tested on: NCI-H1792
How it was run: as §1

NCI-H1915 = tested on: NCI-H1915
How it was run: as §1

NCI-H2347 = tested on: NCI-H2347
How it was run: as §1

## NC(=O)Nc1cc(-c2cccc(F)c2)sc1C(=O)N[C@H]1CCCNC1 [AZD7762] + CC1(C)CCC(c2ccc(Cl)cc2)=C(CN2CCN(c3ccc(C(=O)NS(=O)(=O)c4ccc(N[C@H](CCN5CCOCC5)CSc5ccccc5)c(S(=O)(=O)C(F)(F)F)c4)cc3)CC2)C1 [Navitoclax] (partner 0.5 µM)
PC-3 [JPC-3]; first compound 0.1 µM
  relative viability: 0.802
PC-3 [JPC-3]; first compound 0.3162 µM
  relative viability: 0.847
PC-3 [JPC-3]; first compound 1 µM
  relative viability: 0.823
NCI-H1975; first compound 0.01 µM
  relative viability: 1.03
NCI-H1975; first compound 0.03162 µM
  relative viability: 0.953
NCI-H1975; first compound 0.1 µM
  relative viability: 1.11
NCI-H1975; first compound 0.3162 µM
  relative viability: 0.938
NCI-H1975; first compound 1 µM
  relative viability: 0.676
LC-2-ad; first compound 0.01 µM
  relative viability: 0.491
LC-2-ad; first compound 0.03162 µM
  relative viability: 0.476
LC-2-ad; first compound 0.1 µM
  relative viability: 0.415
LC-2-ad; first compound 0.3162 µM
  relative viability: 0.414
LC-2-ad; first compound 1 µM
  relative viability: 0.309
NCI-H1734; first compound 0.01 µM
  relative viability: 0.995
NCI-H1734; first compound 0.03162 µM
  relative viability: 0.892
NCI-H1734; first compound 0.1 µM
  relative viability: 0.978
NCI-H1734; first compound 0.3162 µM
  relative viability: 0.891
NCI-H1734; first compound 1 µM
  relative viability: 0.606
HCC-78; first compound 0.01 µM
  relative viability: 0.822
HCC-78; first compound 0.03162 µM
  relative viability: 0.807
HCC-78; first compound 0.1 µM
  relative viability: 0.792
HCC-78; first compound 0.3162 µM
  relative viability: 0.714
HCC-78; first compound 1 µM
  relative viability: 0.401
SK-LU-1; first compound 0.01 µM
  relative viability: 0.895
SK-LU-1; first compound 0.03162 µM
  relative viability: 0.649
SK-LU-1; first compound 0.1 µM
  relative viability: 0.251
SK-LU-1; first compound 0.3162 µM
  relative viability: 0.103
SK-LU-1; first compound 1 µM
  relative viability: 0.138
NCI-H2126; first compound 0.01 µM
  relative viability: 0.811
NCI-H2126; first compound 0.03162 µM
  relative viability: 0.866
NCI-H2126; first compound 0.1 µM
  relative viability: 0.889
NCI-H2126; first compound 0.3162 µM
  relative viability: 0.79
NCI-H2126; first compound 1 µM
  relative viability: 0.91
LOU-NH91; first compound 0.01 µM
  relative viability: 0.753
LOU-NH91; first compound 0.03162 µM
  relative viability: 0.673
LOU-NH91; first compound 0.1 µM
  relative viability: 0.619
LOU-NH91; first compound 0.3162 µM
  relative viability: 0.562
LOU-NH91; first compound 1 µM
  relative viability: 0.4
NCI-H1792; first compound 0.01 µM
  relative viability: 0.677
NCI-H1792; first compound 0.03162 µM
  relative viability: 0.686
NCI-H1792; first compound 0.1 µM
  relative viability: 0.692
NCI-H1792; first compound 0.3162 µM
  relative viability: 0.565
NCI-H1792; first compound 1 µM
  relative viability: 0.72
NCI-H1915; first compound 0.01 µM
  relative viability: 0.783
NCI-H1915; first compound 0.03162 µM
  relative viability: 0.78
NCI-H1915; first compound 0.1 µM
  relative viability: 0.784
NCI-H1915; first compound 0.3162 µM
  relative viability: 0.806
NCI-H1915; first compound 1 µM
  relative viability: 0.672
NCI-H2347; first compound 0.01 µM
  relative viability: 0.829
NCI-H2347; first compound 0.03162 µM
  relative viability: 0.934
NCI-H2347; first compound 0.1 µM
  relative viability: 0.935
NCI-H2347; first compound 0.3162 µM
  relative viability: 0.991
NCI-H2347; first compound 1 µM
  relative viability: 0.982
